# Test results: paper PMC7414093 (Proceedings of the National Academy of Sciences of the …, 2020)
# Values joined by “and” are separate entries in the source; they are usually repeats but may differ in a detail not shown here. Identical values can stand only once.
# Assays:
# MDCK-SIAT1 cells = conditions: for cytotoxic concentration (CC)50: dog
# in vitro [1] = conditions: dog, CC50, compound alone, 72 h
# [2] = target: H5 A/Vietnam/1203/2004 HA (Influenza A virus, UniProt Q5EP31); assay: biochemical; assay type: binding
# [3] = tested on: H1N1 virus expressing A/Beijing/262/1995 (H1/Beijing); assay: microbe, parasite or virus in culture; assay type: cell-based; conditions: Influenza A virus, H1N1, 72 h, read-out: EC50, virus neutralization
# [4] = tested on: H1N1 virus expressing A/Solomon Islands/3/2006 (H1/SI06); assay: microbe, parasite or virus in culture; assay type: cell-based, influenza A virus
# [5] = tested on: H5N1 pseudovirus expressing H5 A/Vietnam/1203/2004; assay: organism not typed; assay type: cell-based, influenza A virus; conditions: 72 h, read-out: EC50, virus neutralization
# Solubility in PBS = assay type: physicochemical; conditions: aqueous buffer
# in vitro [6] = conditions: human, pH 7.4
# human cells = tested on: human cells; set-up: method as in PMID 30846569; conditions: cited from earlier work
Structure (SMILES),cytotoxic concentration (CC)50 (MDCK-SIAT1 cells),CC50 (in vitro [1]),EC50 [2],EC50 [3],protection from infection (in words) [4],"EC50 ([4]; Influenza A virus, H1N1, 72 h, read-out: EC50, virus neutralization)",EC50 [5],solubility (Solubility in PBS),"CC50 (MDCK-SIAT1 cells; read-out: CC50, compound alone, 72 h)",k el (in vitro [6]; 0.42 mg),half-life (in vitro [6]; microsomes),microsomal CLint (in vitro [6]; microsomes),CC50 (human cells)
O=C(c1ccc(Cl)cc1Cl)N1CCO[C@H](c2ccccc2)C1 [F0045(R)],> 130 µM,138 µM,–,–,–,–,–,–,–,–,–,–,–
O=C(c1ccc(Cl)cc1Cl)N1CCO[C@@H](c2ccccc2)C1 [F0045(S)],> 130 µM,102 µM,16.2 ± 3.4 µM,1.6 ± 0.1 µM,did not protect cells from infection,> 150 µM,22.8 ± 2.3 µM,> 500 µM,157 µM and 84 µM and 98 µM,0.000283 s⁻¹,40.8 min,41 µL/min/mg,–
CC(=O)Nc1ccc2oc(-c3ccnc(C(=O)N4CCN([C@H](c5ccccc5)c5nnn(C)n5)CC4)c3)nc2c1 [JNJ4796],–,–,–,–,–,–,–,–,–,–,–,–,> 10 µM
